Columns and labels:
Type in all cases: cell-based, human
[1] = test system: shSSTR subtype 2-BON cells; assay: Growth suppression in tetracycline-controlled shRNA knock-down cells; conditions: sh-hSSTR subtype 2-BON; FIG. 5
Description: To validate that cell growth inhibition is caused by the anti-hSSTR antibody in a subtype specific manner, BON cells were stably transfected with plasmids carrying short hairpin RNA shSSTR subtype 2 or shSSTR subtype 5 in which the expression of the shRNAs were under the control of tetracycline. Sh-hSSTR subtype 2 and sh-hSSTR subtype 5 destabilize the target receptor's messenger RNA and, consequently, knock down the expression of the target gene.
The resulting maximal suppression in hours (20 hours) is designated as 100% of growth suppression. The difference measured in doubling time detected between experimental samples and untreated samples divided by the maximal suppression yields the percent growth suppression.
shSSTR BON cells were used to test the specificity of anti-hSSTR subtype 2 and anti-hSSTR subtype 5 antibodies in suppressing BON cell growth. […] The left panels of FIG. 6a and FIG. 6B are the experimental group, while the right panels are the negative control. The Y-axis of each of FIG. 6A and FIG. 6B indicates the growth suppression outcome in %, while the X-axis of each of FIG. 6A and FIG. 6B indicates the increasing concentrations of the antibodies added in each sample. […]

[2] = test system: BON cells; assay: Serotonin EIA, serotonin release
Description: A serotonin ([…]) assay was performed using Serotonin EIA (Biosource, Cat# KAPL10-0900) to measure serotonin release by BON cells over a 48-hour period with or without treatment. […] After 24 hours, the BON cells were subjected to six different daily treatments (at maximum dosages) and grown in FBS-free cell growth media for 2 days in a sterile tissue culture chamber at 37° C. with 6% CO2. These six treatments were: […] The anti-hSSTR Abs (4)-(6) were antibodies produced in the experiment described in Example 1. At the end of each treatment, 1× Halt Protease Inhibitor cocktail (Pierce, Cat# 78415) was immediately added to each sample and the media was collected from each sample and used for Serotonin detection. Next, cells were dissociated from the plate using 2 ml of 1× trypsin-EDTA (Invitrogen Cat#2520) in cell growth media and incubated at 37° C. with 6% CO2 for 5 minutes. Subsequently, an additional 8 ml of cell growth media was added to neutralize trypsin-EDTA, and subjected to 1000 rpm at 4° C. in 15 ml Falcon tubes using Beckman table top centrifuge. Guava Technologies PCA-96 instrument (tabletop flow cytometer) and Viacount flex reagent (Guava Technologies, Cat# 4500-0100) were then used to determine the number of cells for the abovementioned treatments. The results were as follows: […] […]

[3] = test system: BON cells; assay: Cell cycle progression, propidium iodide flow cytometry; conditions: 48 hours, 5 μg/ml antibodies or rabbit IgG, 100 nM octreotide, FIG. 12
Description: Propidium iodide dye was used in flow cytometry (Guava Cell Cycle Reagent Cat #4500-0220) to stain DNA and detect cell cycle progression in BON cells. Treatment conditions for the experiment were as follows: (i) D-PBS; (ii) 5 μg/ml rabbit IgG; (iii) 5 μg/ml anti-hSSTR subtype 2 antibodies; […] Treatments, as described above, were added to the cells once every 24 hours for a total of 48 hours. At the end of each treatment, cells were dissociated from the plate using 2 ml 1× trypsin-EDTA (Invitrogen Cat#2520). […] Next, phosphate buffer solution (D-PBS) (Invitrogen Cat#14190-144) was used as the exchange buffer and 15 ml Falcon tubes with samples were spun at 900 rpm using a table top centrifuge (Beckman Coulter). After centrifugation, supernatant was discarded and cell pellet was resuspended in 10 ml of PBS and this was repeated two times. […] Guava Cell Cycle Reagent (Guava Technologies, Cat#4500-0220) was used for detection by using the Guava PCA96 instrument. Cell Cycle data was analyzed by using Guava Cell Cycle module (Guava Technologies, Cat# 0500-0480). For further detail, please see Guava Cell Cycle Reagent protocol (Guava Technologies).

[4] = test system: BON cells; assay: Guava Nexin apoptosis assay (Annexin V / 7-AAD); conditions: 10 μg/ml rabbit IgG or antibodies, 100 nM octreotide, % of Total
[5] = test system: QGP cells; assay: MTS growth assay in pancreatic islet carcinoma cells; conditions: antibodies 5 μg/ml every 24 hours, octreotide 100 nM every 24 hour, FIG. 15
Description: The QGP cells were maintained in F12 HAM (Invitrogen, Cat#31765035)/D-MEM (Invitrogen, Cat#10567-014) (50/50) in 10% certified fetal bovine serum (FBS) (Invitrogen, Cat#16000-044) in 10-cm tissue culture plates (BD Biosciences, Cat#353003). QGP cells were first seeded at a density of 5000 cells/well in QGP cell growth media and grown in 96-well cell culture plates (Costar, Cat#3590) and allowed to attach and grow in 100 μl cell growth media. […] QGP cells constitutively make their own somatostatin. This negative growth autocrine loop was tested by adding 10 μg/ml neutralizing anti-SST antibody (SST antibody, right hand Y-axis of FIG. 15) once every 24 hours, and a significant growth rescue (29%) was observed. […] CellTiter 96® Aqueous One Solution Cell Proliferation Assay (MTS) (Promega, Cat#G3581), was used as described above to measure the growth doubling time for all QGP cells. Daily data collected was used to calculate the doubling time in hours. QGP cell growth increase or decrease as a result of each treatment is presented as a percent change along the x-axis in FIG. 15. The percent change for QGP cells in each treatment was derived by normalizing treated cells against untreated cells (as % of change in growth) in growth doubling time.

With `C[C@@H](O)[C@@H]1NC(=O)[C@H](CCCCN)NC(=O)[C@@H](Cc2c[nH]c3ccccc23)NC(=O)[C@H](Cc2ccccc2)NC(=O)[C@@H](NC(=O)[C@H](N)Cc2ccccc2)CSSC[C@@H](C(=O)N[C@H](CO)[C@@H](C)O)NC1=O` [octreotide] the “growth doubling time under octreotide compared to BON cells” value [1] was “did not change”, the “serotonin level in the media” value ([2]; 48-hour period, 5 μg/ml antibody or rabbit IgG, 100 nM octreotide, four independent experiments) was 2126 attogram/cell and the “decrease of serotonin release against control” value ([2]; 48 hours, antibodies against rabbit IgG, octreotide against vehicle (PBS)) was 2.7 fold. The “cell population in G0/G1” value [3] was about 75%, the “Live, healthy cells (Lower Left Quadrant)” value (shortened to “Live … (Lower Left Quadrant)”) ([4]; 24 hours after treatment) was 95.7% and the “Late apoptotic cells (Upper Right Quadrant)” value ([4]; 48 hours after treatment) was 10.0%. For the same molecule, the “Live … (Lower Left Quadrant)” value ([4]; 48 hours after treatment) was 85.4%, the “Live … (Lower Left Quadrant)” value ([4]; 72 hours after treatment) was 72.5% and the QGP growth suppression [5] was “sensitive”.
